Here are results for 32 molecules from ChEMBL document CHEMBL1177664, “Development of tryptase inhibitors derived from thalidomide” (Bioorg Med Chem, 2010).

Each structure is given as a SMILES string. The source made the active and inactive calls. No cut-off for these calls is given here. A value given as a limit tells only on which side of the number the result lay.

For test [1], the species on record is Homo sapiens. Kind of test: Inhibition of human tryptase-beta at 30 uM after 5 mins by fluorimetric analysis.
Test [2] in a line: (§1) Inhibition of human tryptase-beta after 5 mins by fluorimetric analysis.
A short description of test [3]: Binding affinity to bovine type 1 trypsin after 3 mins. More on the design: species or system Bos taurus.
Test [4] can be described thus: Binding affinity to human tryptase-beta after 3 mins.
Test [5] concerns the target Prothrombin (Bos taurus, UniProt P00735). In words: Binding affinity to bovine thrombin after 3 mins.
The species entered for test [6] is Homo sapiens. In words: Competitive inhibition of human tryptase-beta by Lineweaver-Burke plot analysis.
The species entered for test [7] is Homo sapiens. The description is as §1.

Take `CN1C(=O)c2ccc(OC(=O)CCCc3ccc(N)cc3)cc2C1=O`: the inhibition result in test [1] is “inactive”.
In the case of `CN1C(=O)c2ccc(OC(=O)CCc3ccc(N)cc3)cc2C1=O`, half-maximal inhibition in test [2] (IC50) was put at 1500 nM. The inhibition in test [1] came out at 98%. The results for the inhibitory constant (Ki) in test [3], in test [4] and in test [5] were 13000 nM, 1700 nM and 15000 nM, respectively.
With `CC(C)(C)c1ccc(N2C(=O)c3ccc(OC(=O)CCc4ccc(N)cc4)cc3C2=O)cc1`, the inhibition result in test [1] is “inactive”.
For `COc1cc(CCC(=O)Oc2ccc3c(c2)C(=O)N(C)C3=O)ccc1N`, in test [2], the IC50 was > 30000 nM.
As for `CN1C(=O)c2ccc(OC(=O)CCc3cccc(N)c3)cc2C1=O`, the inhibition entry in test [1] was “inactive”.
Turning to `CN1C(=O)c2ccc(OC(=O)CCc3ccc(N)nc3)cc2C1=O`, the half-maximal inhibitory concentration (IC50) in test [2] was 400 nM. In test [6], the inhibition entry was “Active”. For the same molecule, the Ki in test [3] was 2900 nM; in test [4], 340 nM; in test [5], 7000 nM.
`COc1ccc(CCC(=O)Oc2ccc3c(c2)C(=O)N(C)C3=O)cc1`: the inhibition entry in test [1] is “inactive”.
The molecule `Nc1ccc(CCC(=O)Oc2ccc3c(c2)C(=O)N(c2ccc(F)cc2)C3=O)cc1` displayed an IC50 in test [2] of 1700 nM. This counts as single-digit micromolar.
Consider `N#Cc1ccc(N2C(=O)c3ccc(OC(=O)CCc4ccc(N)nc4)cc3C2=O)cc1`, for which, in test [2], half-maximal inhibition (IC50) required 78 nM. Moreover, the inhibition result in test [7] was “Dose-dependent effect”. In test [6], the inhibition entry was “Active”. In addition, the figures for the Ki in test [3], in test [4] and in test [5] were 880 nM, 44 nM and 16000 nM, respectively.
`Nc1ccc(CCC(=O)Oc2ccc3c(c2)C(=O)N(c2ccc(N)cc2)C3=O)cc1` yielded a 50% inhibitory concentration (IC50) in test [2] of 820 nM.
Consider `COc1ccccc1N1C(=O)c2ccc(OC(=O)CCc3ccc(N)cc3)cc2C1=O`, for which, in test [2], the IC50 was found to be 1100 nM. The IC50 values of the last two molecules are within 1.5-fold of each other.
The same measure, in the same setting: the value for `Cc1ccc(N2C(=O)c3ccc(OC(=O)CCc4ccc(N)cc4)cc3C2=O)cc1` was 1200 nM.
The same measure, in the same setting: with `CC(C)N1C(=O)c2ccc(OC(=O)CCc3ccc(N)cc3)cc2C1=O` the figure was 1200 nM.
Turning to `CN1C(=O)c2ccc(OC(=O)Cc3ccc(N)cc3)cc2C1=O`, the inhibition entry in test [1] is “inactive”.
On to `CN1C(=O)c2ccc(OC(=O)CCc3ccncc3)cc2C1=O`, for which the IC50 in test [2] is > 30000 nM.
Still for that read-out and setting: with `COc1cc(N)ccc1CCC(=O)Oc1ccc2c(c1)C(=O)N(C)C2=O` the figure was 1800 nM; with `Nc1ccc(CCC(=O)Oc2ccc3c(c2)C(=O)N(C2CCCCC2)C3=O)cc1`, 1200 nM.
Turning to `N#Cc1ccc(N2C(=O)c3ccc(OC(=O)CCc4ccc(N)cc4)cc3C2=O)cc1`, the IC50 in test [2] was determined as 340 nM. Further, in test [6], the inhibition result is “Active”. In addition, the inhibition constant Ki in test [3] was found to be 4300 nM; in test [4], 190 nM; in test [5], 8600 nM.
Take `CN1C(=O)c2ccc(OC(=O)c3cccc(N)c3)cc2C1=O`: the inhibition entry in test [1] was “inactive”.
The same measure, in the same setting: the value for `CN1C(=O)c2ccc(OC(=O)CCc3ccc(N(C)C)cc3)cc2C1=O` was “inactive”.
As for `CN1C(=O)c2ccc(OC(=O)CCc3cnc(N)nc3)cc2C1=O`, the half-maximal inhibitory concentration (IC50) in test [2] came out at 7800 nM.
Turning to `CN1C(=O)c2ccc(OC(=O)Cc3cccc(N)c3)cc2C1=O`, in test [1], the inhibition was 46%.
The molecule `CN1C(=O)c2ccc(OC(=O)c3ccccc3N)cc2C1=O` returned an IC50 in test [2] of 1500 nM. Further, the inhibition result in test [1] is “inactive”.
As for `Nc1ccc(CCC(=O)Oc2ccc3c(c2)C(=O)N(c2ccccc2)C3=O)cc1`, in test [2], the IC50 was 1300 nM.
The same measure, in the same setting: with `CCCN1C(=O)c2ccc(OC(=O)CCc3ccc(N)cc3)cc2C1=O` the figure was 1200 nM; with `COc1cccc(N2C(=O)c3ccc(OC(=O)CCc4ccc(N)cc4)cc3C2=O)c1`, 650 nM.
As for `CN1C(=O)c2ccc(OC(=O)c3ccc(N)cc3)cc2C1=O`, in test [1], the inhibition entry was “inactive”.
Same read-out and setting: the value for `Nc1ccc(CCC(=O)Oc2ccc3c(c2)C(=O)N(c2ccc(C(F)(F)F)cc2)C3=O)cc1` was “inactive”; that for `Nc1ccc(CCC(=O)Oc2ccccc2)cc1` was “inactive”.
`COc1ccc(N2C(=O)c3ccc(OC(=O)CCc4ccc(N)cc4)cc3C2=O)cc1` yielded an IC50 in test [2] of 390 nM. This lies in the sub-micromolar range.
Consider `CN1C(=O)c2ccc(OC(=O)CCc3ccccc3)cc2C1=O`, for which the inhibition result in test [1] was “inactive”.
`CCCCCCN1C(=O)c2ccc(OC(=O)CCc3ccc(N)cc3)cc2C1=O` yielded an IC50 in test [2] of 1500 nM.
